The target of one assay is T1, Arginase-1 (Homo sapiens, UniProt P05089).
T1 sequence (P05089 whole entry): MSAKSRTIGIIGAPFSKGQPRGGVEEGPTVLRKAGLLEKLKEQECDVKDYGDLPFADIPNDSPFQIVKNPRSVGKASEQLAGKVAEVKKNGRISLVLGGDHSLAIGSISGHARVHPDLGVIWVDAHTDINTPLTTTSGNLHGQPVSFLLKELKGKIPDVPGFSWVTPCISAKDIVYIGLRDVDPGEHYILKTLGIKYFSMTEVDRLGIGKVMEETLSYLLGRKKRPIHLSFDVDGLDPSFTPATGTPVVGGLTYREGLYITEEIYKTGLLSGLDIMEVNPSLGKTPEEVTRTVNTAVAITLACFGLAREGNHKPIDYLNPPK
The assay is described as follows: Inhibition of human recombinant arginase 1 expressed in Escherichia coli BL21 (DE3) assessed as reduction in urea production using L-arginine as substrate in presence of MnSO4 incubated for 60 mins by o-phthaldialdehyde/N-(1-naphthyl)ethylene-diamine dihydrochloride reagent based colorimetric assay.

Assay [1] can be described thus: Inhibition of human recombinant arginase 2 H331 to I354 deletion mutant expressed in Escherichia coli BL21 (DE3) assessed as reduction in urea production using L-arginine as substrate in presence of MnSO4 incubated for 60 mins by colorimetric assay.
For the next assay, the species on record is Homo sapiens. Kind of assay: Selectivity ratio of IC50 for human recombinant arginase 2 H331 to I354 deletion mutant expressed in Escherichia coli BL21 (DE3) to IC50 for human recombinant arginase 1 expressed in Escherichia coli BL21 (DE3).
Assay [2] addresses T2, Arginase-1 (Homo sapiens) (UniProt P05089).
T2 sequence (whole entry): T1 sequence (P05089 whole entry)
The assay is described as follows: Potency index, ratio of ABH IC50 to test compound IC50 for human recombinant arginase 1 expressed in Escherichia coli BL21 (DE3).

Structures are written as SMILES.

`C[C@H](N)CN1C[C@H](CCCB(O)O)[C@](N)(C(=O)O)C1`: the figures for the IC50 (at Arginase-1 (read-out: IC50); in assay [1] (read-out: IC50)) were 7.7 nM and 16 nM, respectively. Besides, in the assay listed under Homo sapiens, the Ratio IC50 was 2 to 5.

Turning to `NC1(C(=O)O)CCCC1CCCB(O)O` (racemic; 8) [listing 1 of 2 here], the IC50 at Arginase-1 (read-out: IC50) was found to be 380 nM; in assay [1] (read-out: IC50) it was 1280 nM.

Consider `N[C@H](CN1C[C@H](CCCB(O)O)[C@](N)(C(=O)O)C1)c1ccccc1`, for which the figures for the half-maximal inhibitory concentration (IC50) (at Arginase-1 (read-out: IC50); in assay [1] (read-out: IC50)) were 2.5 nM and 9.5 nM, respectively. Further, the Ratio IC50 in the assay listed under Homo sapiens is 3 to 5.

Regarding `N[C@@]1(C(=O)O)CN(Cc2cccnc2)C[C@@H]1CCCB(O)O`, the concentration for half-maximal inhibition (IC50) at Arginase-1 (read-out: IC50) came out at 470 nM; in assay [1] (read-out: IC50), 1370 nM. Moreover, the Ratio IC50 in the assay filed under Homo sapiens lay in the range of 3 to 5.

As for `N=C(NO)NCC[C@H](N)C(=O)O` [NOR-NOHA], the IC50 in assay [1] (read-out: IC50) was 1260 nM.

Consider `N[C@@H](Cc1ccccc1)CN1C[C@H](CCCB(O)O)[C@](N)(C(=O)O)C1`, for which the figures for the IC50 (on Arginase-1 (read-out: IC50); in assay [1] (read-out: IC50)) were 1.3 nM and 8.1 nM, respectively. Besides, the Ratio IC50 in the assay filed under Homo sapiens was 3 to 5; in assay [2], 1190.

`Cc1[nH]ncc1CN1C[C@H](CCCB(O)O)[C@](N)(C(=O)O)C1`: the IC50 amounted to 400 nM at Arginase-1 (read-out: IC50) and 2180 nM in assay [1] (read-out: IC50). Further, in the assay listed under Homo sapiens, the Ratio IC50 is 3 to 5.

As for `Cc1nn(C)c(C)c1CN1C[C@H](CCCB(O)O)[C@](N)(C(=O)O)C1`, the IC50 came to 340 nM at Arginase-1 (read-out: IC50) and 2230 nM in assay [1] (read-out: IC50). In addition, the Ratio IC50 in the assay filed under Homo sapiens fell in the range of 3 to 5.

As for `N[C@@]1(C(=O)O)CN(C[C@@H]2CCCCN2)C[C@@H]1CCCB(O)O`, the concentration for half-maximal inhibition (IC50) on Arginase-1 (read-out: IC50) was 30 nM; in assay [1] (read-out: IC50), 95 nM. Further, in the assay listed under Homo sapiens, the Ratio IC50 was 3 to 5.

Consider `N[C@@]1(C(=O)O)CN(C[C@H]2COCCN2)C[C@@H]1CCCB(O)O`, for which the IC50 at Arginase-1 (read-out: IC50) turned out to be 19 nM; in assay [1] (read-out: IC50), 65 nM. In addition, the Ratio IC50 in the assay filed under Homo sapiens fell in the range of 3 to 5.

Turning to `NC1(C(=O)O)CCCC1CCCB(O)O` (racemic; 9), the 50% inhibitory concentration (IC50) at Arginase-1 (read-out: IC50) stood at 48000 nM; in assay [1] (read-out: IC50), 79200 nM.

Take `N[C@@]1(C(=O)O)CN(C[C@H]2CCCCN2)C[C@@H]1CCCB(O)O`: the IC50 stood at 2.6 nM on Arginase-1 (read-out: IC50) and 14 nM in assay [1] (read-out: IC50). Further, the Ratio IC50 in the assay filed under Homo sapiens was 3 to 5.

For `Cn1ccnc1CN1C[C@H](CCCB(O)O)[C@](N)(C(=O)O)C1`, the IC50 at Arginase-1 (read-out: IC50) came out at 100 nM; in assay [1] (read-out: IC50), 330 nM. In the assay listed under Homo sapiens, the Ratio IC50 is 3 to 5.

For `N[C@@]1(C(=O)O)CN(C[C@H]2CCCN2)C[C@@H]1CCCB(O)O`, the half-maximal inhibitory concentration (IC50) came to 10 nM at Arginase-1 (read-out: IC50) and 37 nM in assay [1] (read-out: IC50). In addition, the Ratio IC50 in the assay filed under Homo sapiens fell in the range of 3 to 5.

As for `N[C@@]1(C(=O)O)CCC[C@@H]1CCCB(O)O`, the IC50 amounted to 210 nM at Arginase-1 (read-out: IC50) and 630 nM in assay [1] (read-out: IC50). Besides, the Ratio IC50 in the assay listed under Homo sapiens was in the range of 3 to 5.

As to `N[C@@]1(C(=O)O)CN(Cc2ccccn2)C[C@@H]1CCCB(O)O`, the IC50 on Arginase-1 (read-out: IC50) is 380 nM; in assay [1] (read-out: IC50) it was 1270 nM. Also, in the assay filed under Homo sapiens, the Ratio IC50 lay within 3 to 5.

Regarding `N[C@@]1(C(=O)O)CNC[C@@H]1CCCB(O)O`, the 50% inhibitory concentration (IC50) was found to be 110 nM at Arginase-1 (read-out: IC50) and 440 nM in assay [1] (read-out: IC50). Moreover, the Ratio IC50 in the assay listed under Homo sapiens lay within 3 to 5.

On to `CC(C)CN1C[C@H](CCCB(O)O)[C@](N)(C(=O)O)C1`, for which the 50% inhibitory concentration (IC50) at Arginase-1 (read-out: IC50) came out at 390 nM; in assay [1] (read-out: IC50), 1610 nM. Also, the Ratio IC50 in the assay listed under Homo sapiens lay within 3 to 5.

With `N[C@@H](CN1C[C@H](CCCB(O)O)[C@](N)(C(=O)O)C1)c1ccccc1`, the IC50 is 18 nM at Arginase-1 (read-out: IC50) and 62 nM in assay [1] (read-out: IC50). Besides, the Ratio IC50 in the assay listed under Homo sapiens was 3 to 5.

In the case of `N[C@@H](CCCCB(O)O)C(=O)O`, the IC50 at Arginase-1 (read-out: IC50) is 1550 nM; in assay [1] (read-out: IC50), 2550 nM. Moreover, in the assay filed under Homo sapiens, the Ratio IC50 lay within 3 to 5.

Regarding `N[C@]1(C(=O)O)CCC[C@H]1CCCB(O)O`, the IC50 result (on Arginase-1; in assay [1]) was “Not Active” each time.

`N[C@@]1(C(=O)O)CN(Cc2cncs2)C[C@@H]1CCCB(O)O`: the IC50 on Arginase-1 (read-out: IC50) was found to be 360 nM; in assay [1] (read-out: IC50), 850 nM. Also, the Ratio IC50 in the assay listed under Homo sapiens lay within 3 to 5.

With `N[C@H](Cc1ccccc1)CN1C[C@H](CCCB(O)O)[C@](N)(C(=O)O)C1`, the IC50 on Arginase-1 (read-out: IC50) was determined as 10 nM; in assay [1] (read-out: IC50) it was 27 nM. In the assay filed under Homo sapiens, the Ratio IC50 was in the range of 3 to 5.

`N[C@@]1(C(=O)O)CN(C[C@@H]2CCCN2)C[C@@H]1CCCB(O)O`: the values for the concentration for half-maximal inhibition (IC50) (at Arginase-1 (read-out: IC50); in assay [1] (read-out: IC50)) were 11 nM and 47 nM, respectively. The Ratio IC50 in the assay listed under Homo sapiens lay in the range of 3 to 5.

On to `NC1(C(=O)O)CCCC1CCCB(O)O` (racemic; 8) [listing 2 of 2 here], for which the Ratio IC50 in the assay filed under Homo sapiens lay within 3 to 5.

As to `N[C@@]1(C(=O)O)CN(Cc2ccncc2)C[C@@H]1CCCB(O)O`, the concentration for half-maximal inhibition (IC50) on Arginase-1 (read-out: IC50) came out at 600 nM; in assay [1] (read-out: IC50) it was 1860 nM. The Ratio IC50 in the assay filed under Homo sapiens was in the range of 3 to 5.

With `C[C@@H](N)CN1C[C@H](CCCB(O)O)[C@](N)(C(=O)O)C1`, the IC50 at Arginase-1 (read-out: IC50) is 16 nM; in assay [1] (read-out: IC50) it was 37 nM. The Ratio IC50 in the assay listed under Homo sapiens lay within 3 to 5.

`N[C@@]1(C(=O)O)CN(C[C@@H]2COCCN2)C[C@@H]1CCCB(O)O`: the figures for the IC50 (on Arginase-1 (read-out: IC50); in assay [1] (read-out: IC50)) were 10 nM and 27 nM, respectively. Besides, the Ratio IC50 in the assay listed under Homo sapiens was in the range of 3 to 5.

On to `N[C@@]1(C(=O)O)CN(Cc2cccc(F)n2)C[C@@H]1CCCB(O)O`, for which the IC50 on Arginase-1 (read-out: IC50) stood at 670 nM; in assay [1] (read-out: IC50), 2160 nM. For the same compound, the Ratio IC50 in the assay filed under Homo sapiens fell in the range of 3 to 5.

For the compound `N[C@@]1(C(=O)O)CN(Cc2ccccc2)C[C@@H]1CCCB(O)O`, the values for the IC50 (at Arginase-1 (read-out: IC50); in assay [1] (read-out: IC50)) were 300 nM and 1540 nM, respectively. The Ratio IC50 in the assay filed under Homo sapiens was 3 to 5.

By IC50 is commonly meant the concentration that gives 50% inhibition.

Values taken from ChEMBL document CHEMBL4334476 (J Med Chem, 2019).
